In US7947293B2, “Aqueous pharmaceutical formulation” (Arpida AG, priority 2008, dated 2011):
Like-named read-outs stand apart in the source and are kept apart here.

How the values were obtained:
Assay type in all cases: physicochemical
[1] = Solubility of iclaprim methanesulfonic acid salt in aqueous/organic solutions, HPLC of supernatant; settings: for solubility at 24 h: thermodynamic from solid
Experimental: A fixed amount of iclaprim mesylate was suspended in the different aqueous/organic solutions. The suspension was stirred at room temperature for 24 hours. The supernatant of the solutions were analyzed by HPLC to determine the amount of iclaprim in the solution.

[2] = Stress heating of standard formulation (simulated long term storage), HPLC; settings: 20 mg/mL in 30% propylene glycol in water, normal atmosphere
Experimental: Within the scope of the present invention various standard aqueous formulations of 5-[(2RS)-2-cyclopropyl-7,8-dimethoxy-2H-1-benzopyran-5-ylmethyl]-pyrimidine-2,4-diamine and its acid addition salts were tested for long term stability. For example, vials of 5-[(2RS)-2-cyclopropyl-7,8-dimethoxy-2H-1-benzopyran-5-ylmethyl]-pyrimidine-2,4-diamine methanesulfonic acid salt were prepared in 30% propylene glycol in water at a concentration of iclaprim of 20 mg/mL. In order to examine the stability of the above standard formulations a model system was used to simulate long term storage conditions. In this model system, the solutions to be tested are stress heated at 40° C. and 70° C. for at least 12 days. The analysis of the solutions after completion of the heating step were made by means of methods well known to those skilled in the art such as, for example, HPLC measurements. Vials of 5-[(2RS)-2-cyclopropyl-7,8-dimethoxy-2H-1-benzopyran-5-ylmethyl]-pyrimidine-2,4-diamine methanesulfonic acid salt (20 mg/mL) were prepared in 30% propylene glycol in Millipore water under normal atmosphere. In order to examine the stability of the above formulation a model experiment was developed wherein the solutions to be tested are stress heated. It is well know in the art that by heating a test sample at a temperature higher than room temperature (about 20° C.) such as between 40° C. and 70° C. for a prolonged period of time, long storage conditions can be simulated. The analysis of the solutions after completion of the heating step was made by means of visual examinations and HPLC measurements.

[3] = Stability of iclaprim under simulated sterilization conditions at pH<3.5, HPLC; settings: 30% propylene glycol or 10% glycofurol in water
Experimental: Further stability tests of the above standard formulations were performed, wherein the pH was adjusted with citric acid below 3.5 under simulated sterilization conditions, such as 100° C. for 2 h. Vials of 5-[(2RS)-2-cyclopropyl-7,8-dimethoxy-2H-1-benzopyran-5-ylmethyl]-pyrimidine-2,4-diamine methanesulfonic acid salt were prepared in 30% propylene glycol or 10% glycofurol in water. The pH of the so obtained solution was adjusted to pH 3 with 1M citric acid or to pH 1 with 1N hydrochloric acid, and the vials were heated in order to simulate a sterilization process. The analysis of the solutions after completion of the heating step was performed by means of visual examinations and HPLC measurements.

| solubility at 24 h ([1]; 10% propylene glycol in saline 0.9%, aqueous with cosolvent or surfactant or cyclodextrin, 10% (saline 0.9%) propylene glycol, room temperature, 24 hours, read-out: Solubility calculated form HPLC measurements) [µg/mL] | solubility at 24 h ([1]; aqueous with cosolvent or surfactant or cyclodextrin, 10% aqueous propylene glycol, room temperature, 24 hours, read-out: Solubility calculated form HPLC measurements) [µg/mL] | solubility at 24 h ([1]; saline or isotonic, Saline 0.9%, room temperature, 24 hours, read-out: Solubility calculated form HPLC measurements) [µg/mL] | solubility at 24 h ([1]; saline solution with reduced propylene glycol, aqueous with cosolvent or surfactant or cyclodextrin, in saline solution, reduced propylene glycol, pH above 4.0, read-out: maximal solubility achieved) [µg/mL] | concentration at which precipitation was observed ([1]; saline solutions, e.g. 10% propylene glycol saline solution) | solubility at 24 h ([1]; water, room temperature, 24 hours, read-out: Solubility calculated form HPLC measurements) [µg/mL] | % iclaprim ([2]; 12 days, 40° C.) [%] | % iclaprim ([2]; 12 days, 70° C.) [%] | % iclaprim ([2]; 45 days, about 20° C.) [%] | % iclaprim ([2]; fresh solution, 0 min, about 20° C.) [%] | % iclaprim ([3]; 1 h, 37° C., pH 1) [%] | % iclaprim ([3]; 2 h, 100° C., pH 1) [%] | % iclaprim ([3]; 2 h, 100° C., pH 3) [%] | % iclaprim ([3]; 3 h, 37° C., pH 1) [%] | % iclaprim ([3]; 3 h, 37° C., pH 3) [%] | % iclaprim ([3]; fresh solution, 0 min, about 20° C., pH 4.5 (reference, no pH adjustment)) [%] | SMILES |
| --- | --- | --- | --- | --- | --- | --- | --- | --- | --- | --- | --- | --- | --- | --- | --- | --- |
| 7500 | 27800 | 1200 | 7500 | above 7.5 mg/mL | 18100 | – | – | – | – | – | – | – | – | – | – | COc1cc(Cc2cnc(N)nc2N)c2c(c1OC)OC(C1CC1)C=C2.CS(=O)(=O)O (racemic) [iclaprim methanesulfonic acid salt, 5-[(2RS)-2-cyclopropyl-7,8-dimethoxy-2H-1-benzopyran-5-ylmethyl]-pyrimidine-2,4-diamine methanesulfonic acid salt] |
| – | – | – | – | – | – | 97.0 | 90.0 | 97.5 | 99.1 | 99.0 | 60.0 | 86.5 | 96.3 | 99.0 | 99.1 | COc1cc(Cc2cnc(N)nc2N)c2c(c1OC)OC(C1CC1)C=C2 (racemic) [iclaprim, 5-[(2RS)-2-cyclopropyl-7,8-dimethoxy-2H-1-benzopyran-5-ylmethyl]-pyrimidine-2,4-diamine] |
